Reference: PubChem BioAssay (NCI)
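Five compound concentrations were applied to cells in 96-well plates for 48 hours; endpoints were derived by simple linear interpolation of the resulting dose-response curve. GI50: concentration for 50% inhibition of growth. At the TGI there is no net growth.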

Tests used:
Experiment in all cases: growth of human tumour cells (NCI), 48 h
[1] = test system: HT29 colon
[2] = test system: ACHN renal
[3] = test system: RXF 393 renal
[4] = test system: UACC-257 melanoma
[5] = test system: OVCAR-5 ovarian
[6] = test system: T-47D breast
[7] = test system: MALME-3M melanoma
[8] = test system: SK-MEL-2 melanoma
[9] = test system: TK-10 renal
[10] = test system: M14 melanoma

COc1ccc(C(=O)c2cc(OC)c(OC)c(OC)c2)cc1/C=C/C(=O)c1ccc(O)cc1 gave a GI50 [1] of 5.35 µM, a TGI [1] of over 100 µM and a GI50 [2] of 5.22 µM. The TGI [2] was 21.5 µM, the GI50 [3] was 3.57 µM and the TGI [3] was 14.9 µM. For the same compound, the GI50 [4] was 7.77 µM, the TGI [4] was 26.6 µM and the GI50 [5] was 11.2 µM. For the same compound, the TGI [5] was 25.1 µM, the GI50 [6] was 19 µM and the TGI [6] was over 100 µM. The GI50 [7] was 9.69 µM, the TGI [7] was 25.1 µM and the GI50 [8] was 5.01 µM. It also gave a TGI [8] of 26.5 µM, a GI50 [9] of 11.8 µM and a TGI [9] of 28.5 µM. The GI50 [10] was 1.98 µM and the TGI [10] was 5.86 µM.
Compound COc1ccc2c(CN3CCC(CO)CC3)cc3cc4c(cc3c2c1)OCO4 has a GI50 [1] of 0.134 µM, a TGI [1] of 2.6 µM and a GI50 [2] of 0.0825 µM. The TGI [2] was 0.45 µM, the GI50 [3] was 0.0843 µM and the TGI [3] was 0.847 µM. For the same compound, the GI50 [4] was 0.156 µM, the TGI [4] was 0.393 µM and the GI50 [5] was 0.344 µM. The TGI [5] was 10.6 µM, the GI50 [6] was 0.418 µM and the TGI [6] was 9.17 µM. It also gave a GI50 [7] of 0.199 µM, a TGI [7] of 0.799 µM and a GI50 [8] of 0.193 µM. For the same compound, the TGI [8] was 0.636 µM, the GI50 [9] was 0.407 µM and the TGI [9] was 8.65 µM. The GI50 [10] was 0.296 µM and the TGI [10] was 1.26 µM.
CCN(Cc1ccc(F)cc1F)c1ccc(CO)c(Cl)c1 was tested, and the GI50 [1] was 5.65 µM, the TGI [1] was 30.4 µM and the GI50 [2] was 14.1 µM. The TGI [2] was 38.3 µM, the GI50 [3] was 2.26 µM and the TGI [3] was 14.5 µM. The GI50 [4] was 0.128 µM, the TGI [4] was 0.372 µM and the GI50 [5] was 0.0685 µM. The TGI [5] was 0.317 µM, the GI50 [6] was 0.105 µM and the TGI [6] was 0.701 µM. The GI50 [7] was 18.2 µM, the TGI [7] was 42.8 µM and the GI50 [8] was 5.36 µM. For the same compound, the TGI [8] was 21.3 µM, the GI50 [9] was 0.0434 µM and the TGI [9] was 0.245 µM. It also gave a GI50 [10] of 20.3 µM and a TGI [10] of over 55.6 µM.
In the case of O=C1NC(=O)C2=C1CCC2O (stereo not given), the TGI [1] was over 100 µM, the TGI [2] was over 100 µM and the TGI [3] was over 100 µM. The TGI [4] was over 100 µM, the TGI [5] was over 100 µM and the TGI [6] was over 100 µM. For the same compound, the TGI [7] was over 100 µM, the TGI [8] was over 100 µM and the TGI [9] was over 100 µM. For the same compound, the TGI [10] was over 100 µM.
